Assay results taken from patent US7141680B2, “Aromatic compounds possessing antifungal or antibacterial activity” (Genelabs Technologies, Inc., priority 2002, dated 2006).
Where a name gives a salt, the structure may show the parent alone.

Key:
Aspergillus species = experiment: Minimum inhibitory concentration (MIC) assay, filamentous fungi; assay type: cell-based; details: antifungal activity, lowest concentration at which 75% inhibition of growth is observed after 48 h
Method: (§1) The assays described below were used to measure the minimum inhibitory concentration (MIC) of a compound necessary to inhibit visible growth of the organism tested. These assays are adapted from NCCLS protocols M7-A4 and M27-A (NCCLS vol 17:9 and vol 17:2) as modified by Sandven, S., Clin. Micro. (1999) 37:12, p. 3856–3859. MIC values for Aspergillus species were determined using NCCLS protocol M38-P.
(§2) All compounds were dissolved in 100% DMSO to a stock concentration of 10 mM and used fresh stock compounds in powder form were kept frozen until needed and used freshly. When used for test purposes, compounds were diluted in the appropriate media depending on the organism being tested.
(§3) For yeast and aspergillus species, seven 1:2 serial dilutions of compound in appropriate media buffered with MOPS at pH 7.0 were prepared such that the final starting test compound concentrations were 44.4 μM for yeast and 50 μM aspergillus species. For bacteria, dilutions were made in growth media used for the particular bacteria being tested.
Inoculums are made by incubating Aspergillus species for 7 days at 35° C. on potato dextrose agar slants. Slants are then covered with 1.0 mL of 0.85% saline, one drop of Tween 20 is added and colonies are teased with a sterile transfer loop to create a suspension which is allowed to sit for 5 min so heavier particles can drop out. The upper suspension is separated and adjusted to an optical density of 0.09 to 0.11. The resulting suspension is diluted 1:50, which yields 2× the final inoculum needed. Micro dilution trays are prepared as with yeast and incubated for 48 h at 35° C. For our purposes the MIC is defined as the lowest compound concentration at which 75% inhibition of growth is observed after 48 h.

bacteria = experiment: Minimum inhibitory concentration (MIC) assay, bacteria; assay type: cell-based
Method: as §1, §2, §3
Five well-separated colonies from a 24 h Sabouraud Dextrose plate incubated at 35° C. were picked and resuspended into 2 mL of normal saline. The O.D.530 was read and the culture was adjusted to 0.5 McFarland units with normal saline. A 1:2000 dilution was made with RPMI 1640 media buffered with MOPS at pH 7.0 and 100 μL of this inoculum preparation was added to an equal volume of test compound-containing media. 25 μL of the redox indicator Alamar Blue (Biosource International) was added to each well and the plates were incubated for 48 h at 35° C. Wells having yeast growth changed color from blue to pink.
Inoculums are made in the same manner as yeast except all dilutions are made in normal saline, with a final dilution of 1:200 and an inoculum of 10 μL.

SMILES	MIC (Aspergillus species)	MIC (bacteria)
N=C(N)NCCNC(=O)c1ccc2[nH]c(C(=O)Nc3ccc4cc(C(=O)NCCNC(=N)N)[nH]c4c3)cc2c1 [Compound 47, 1H-Indole-2,5-dicarboxylic acid 5-[(2-guanidino-ethyl)-amide] 2-{[2-(2-guanidino-ethylcarbamoyl)-1H-indol-6-yl]-amide}]	≤ 50 µM	≤ 45.5 µM
C/N=C(\NC)NCCCNC(=O)c1ccc2[nH]c(C(=O)Nc3ccc4cc(C(=O)NCCN/C(=N/C)NC)[nH]c4c3)cc2c1 [Compound 54, 1H-Indole-2,5-dicarboxylic acid 2-({2-[2-(N′,N″-dimethylguanidino)ethylcarbamoyl]-1H-indole-6-yl}amide) 5-{[3-(N′,N″-dimethylguanidino)propyl]amide}dihydrochloride]	≤ 50 µM	≤ 45.5 µM
CN(C)CCNC(=O)c1cc2ccc(NC(=O)c3cc4cc(C(=O)NCCNC(=N)N)ccc4[nH]3)cc2[nH]1 [Compound 183, 1H-Indole-2,5-dicarboxylic acid 2-{[2-(2-dimethylaminoethylcarbamoyl)-1H-indol-6-yl]amide} 5-[(2-guanidinoethyl)amide]]	≤ 50 µM	–
CC(C)Cn1cc(NC(=O)c2cc3cc(NC(=O)CCNC(=N)N)ccc3[nH]2)cc1C(=O)NCCC(=N)N [Compound 115, 5-(3-Guanidino-propionylamino)-1H-indole-2-carboxylic acid [5-(2-carbamimidoyl-ethylcarbamoyl)-1-isobutyl-1H-pyrrol-3-yl]-amide]	≤ 50 µM	≤ 45.5 µM
C/N=C(\N)NCCCNC(=O)c1ccc2[nH]c(C(=O)Nc3ccc4cc(C(=O)NCCN/C(N)=N/C)[nH]c4c3)cc2c1 [Compound 53, 1H-Indole-2,5-dicarboxylic acid 2-({2-[2-(N′-methylguanidino)ethylcarbamoyl]-1H-indole-6-yl}amide) 5-{[3-(N′-methylguanidino)propyl]amide}dihydrochloride]	≤ 50 µM	≤ 45.5 µM
O=C(NCCNC1=NCCN1)c1ccc2[nH]c(C(=O)Nc3ccc4cc(C(=O)NCCNC5=NCCN5)[nH]c4c3)cc2c1 [Compound 50, 1H-Indole-2,5-dicarboxylic acid 5-{[2-(4,5-dihydro-1H-imidazol-2-ylamino)-ethyl]amide} 2-({2-[2-(4,5-dihydro-1H-imidazol-2-ylamino)-ethylcarbamoyl]-1H-indol-6-yl}-amide)]	≤ 50 µM	≤ 45.5 µM
N=C(N)NCCCNC(=O)c1cc2cc(NC(=O)c3cc4cc(C(=O)NCCNC(=N)N)ccc4[nH]3)ccc2[nH]1 [Compound 67, 1H-Indole-2,5-dicarboxylic acid 5-[(2-guanidino-ethyl)-amide] 2-{[2-(3-guanidino-propylcarbamoyl)-1H-indol-5-yl]-amide}]	≤ 50 µM	≤ 45.5 µM
C[n+]1ccccc1NCCNC(=O)c1ccc2[nH]c(C(=O)Nc3ccc4cc(C(=O)NCCNc5cccc[n+]5C)[nH]c4c3)cc2c1 [Compound 170, 1H-Indole-2,5-dicarboxylic acid 5-[(2-(1-methylpyridiniu-2-yl)amino-ethyl)-amide] 2-{[2-(2-(1-methylpyridiniu-2-yl)amino-ethylcarbamoyl)-1H-indol-6-yl]-amide}]	≤ 50 µM	–
CC(C)(C)OC(=O)NCCNC(=O)c1cc2cc(NC(=O)c3cc4cc(N)ccc4[nH]3)ccc2[nH]1 [Compound 107, [2-({5-[(5-Amino-1H-indole-2-carbonyl)-amino]-1H-indole-2-carbonyl}-amino)-ethyl]-carbamic acid tert-butyl ester]	–	≤ 45.5 µM
N=C(N)NCCC[C@H](N)C(=O)NCCCNC(=O)c1cc2ccc(NC(=O)c3cc4cc(C(=O)NCCNC(=O)[C@@H](N)CCCNC(=N)N)ccc4[nH]3)cc2[nH]1 [Compound 66, 1H-Indole-2,5-dicarboxylic acid 5-{[2-(2-amino-5-guanidino-pentanoylamino)-ethyl]-amide} 2-({2-[3-(2-amino-5-guanidino-pentanoylamino)-propylcarbamoyl]-1H-indol-6-yl}-amide)]	–	≤ 45.5 µM
CC(C)Cn1cc(NC(=O)c2ccc3[nH]c(C(=O)NCCNC(=N)N)cc3c2)cc1C(=O)NCCNC(=N)N [Compound 29, 1H-indole-2,5-dicarboxylic acid 2-[(2-guanidino-ethyl)-amide] 5-{[5-(2-guanidino-ethylcarbamoyl)-1-isobutyl-1H-pyrrol-3-yl]-amide}]	–	≤ 45.5 µM
C/N=C(/NCCNC(=O)c1ccc2[nH]c(C(=O)Nc3ccc4[nH]c(C(=O)NCCN/C(=N/C)SC)cc4c3)cc2c1)SC [Compound 90, 1H-Indole-2,5-dicarboxylic acid 5-{[2-(2,3-dimethylisothioureido)ethyl]amide} 2-({2-[2-(2,3-dimethylisothioureido)ethylcarbamoyl]-1H-indol-5-yl}amide)dihydrochloride]	–	≤ 45.5 µM
N=C(N)NCNC(=O)c1ccc2[nH]c(C(=O)Nc3ccc4cc(C(=O)NCNC(=N)N)[nH]c4c3)cc2c1 [Compound 173, 1H-Indole-2,5-dicarboxylic acid 5-guanidinomethyl-amide 2-{[2-(guanidinomethyl-carbamoyl)-1H-indol-6-yl]-amide}]	≤ 50 µM	–

More lines, main results first:

MIC (Aspergillus species)	SMILES	MIC (bacteria)
≤ 50 µM	N=C(N)NCCNC(=O)c1ccc2[nH]c(C(=O)Nc3ccc4cc(C(=O)NCCNC(=N)N)sc4c3)cc2c1 [Compound 178, 1H-Indole-2,5-dicarboxylic acid 5-[(2-guanidino-ethyl)-amide] 2-{[2-(2-guanidino-ethylcarbamoyl)-benzo[b]thiophen-6-yl]-amide}]	–
≤ 50 µM	CC(=N)NCCNC(=O)c1cc2cc(NC(=O)c3ccc4[nH]c(C(=O)NCCNC(C)=N)cc4c3)ccc2[nH]1 [Compound 9]	–
≤ 50 µM	N=C(N)NCCNC(=O)c1ccc(C(=O)Nc2ccc3[nH]c(C(=O)NCCNC(=N)N)cc3c2)cc1 [Compound 70, N-(2-Guanidino-ethyl)-N′-[2-(2-guanidino-ethylcarbamoyl)-1H-indol-5-yl]-terephthalamide]	–
≤ 50 µM	N=C(N)NCCNC(=O)c1ccc2[nH]c(C(=O)Nc3ccc4[nH]c(C(=O)NCCNC(=N)N)nc4c3)cc2c1 [Compound 175, 1H-Indole-2,5-dicarboxylic acid 5-[(2-guanidino-ethyl)-amide] 2-{[2-(2-guanidino-ethylcarbamoyl)-1H-benzoimidazol-5-yl]-amide)]	–
≤ 50 µM	CN(CCNC(=N)N)C(=O)c1ccc2[nH]c(C(=O)Nc3ccc4cc(C(=O)NCCNC(=N)N)[nH]c4c3)cc2c1 [Compound 176, 1H-Indole-2,5-dicarboxylic acid 2-{[2-(2-guanidino-ethylcarbamoyl)-1H-indol-6-yl]-amide} 5-[(2-guanidino-ethyl)-methyl-amide]]	–
≤ 50 µM	CNCCNC(=O)c1cc2ccc(NC(=O)c3cc4cc(C(=O)NCCNC(=N)N)ccc4[nH]3)cc2[nH]1 [Compound 182, 1H-Indole-2,5-dicarboxylic acid 5-[(2-guanidinoethyl)amide] 2-{[2-(2-methylaminoethylcarbamoyl)-1H-indol-6-yl]amide}]	–
≤ 50 µM	N=C(N)NCCNC(=O)c1cc2cc(NC(=O)c3cc4cc(NC(=O)CNC(=N)N)ccc4[nH]3)ccc2[nH]1 [Compound 138, 5-{[5-(2-guanidino-acetylamino)-1H-indole-2-carbonyl]-amino}-1H-indole-2-carboxylic acid (2-guanidino-ethyl)-amide]	–
≤ 50 µM	N=C(N)NCCNC(=O)c1cc2cc(NC(=O)c3cc4cc(NC(=O)CNC(=N)N)ccc4o3)ccc2[nH]1 [Compound 135, 5-{[5-(2-guanidino-acetylamino)-benzofuran-2-carbonyl]-amino}-1H-indole-2-carboxylic acid (2-guanidino-ethyl)-amide]	–
≤ 50 µM	N=C(N)NCCNC(=O)c1cc2ccc(NC(=O)c3cc4cc(C(=O)NCNC(=N)N)ccc4[nH]3)cc2[nH]1 [Compound 172, 1H-Indole-2,5-dicarboxylic acid 2-{[2-(2-guanidino-ethylcarbamoyl)-1H-indol-6-yl]-amide} 5-guanidinomethyl-amide]	–
≤ 50 µM	N#C/N=C(/N)NCCNC(=O)c1cc2ccc(NC(=O)c3cc4cc(C(=O)NCCNC(=N)N)ccc4[nH]3)cc2[nH]1 [Compound 184, 1H-Indole-2,5-dicarboxylic acid 5-{[2-(guanidino)ethyl]amide} 2-({2-[2-(N′-cyanoguanidino)ethylcarbamoyl]-1H-indol-6-yl}amide)]	–
≤ 50 µM	N=C(N)NCCNC(=O)c1ccc2sc(C(=O)Nc3ccc4sc(C(=O)NCCNC(=N)N)cc4c3)cc2c1 [Compound 177, Benzo[b]thiophene-2,5-dicarboxylic acid 5-[(2-guanidino-ethyl)-amide]2-{[2-(2-guanidino-ethylcarbamoyl)-benzo[b]thiophen-5-yl]-amide}]	–
